Data: patent US4260630A, “Skin diseases” (priority 1977, dated 1981)
“Also recorded” adds a separate entry of the source.

Columns and labels:
Saccharomyces cerevisiae [1] = assay: Induction of cytoplasmic "petite" mutations in yeast; details: compared at the same survival level (10%)
Protocol: A wild-type strain 211-1aM (29) of Saccharomyces cerivisiae was used, and the following mutants derived from it: S24-12c rad2-20 deficient in excision repair and S25-13b rad9-4 likely to be blocked in a recombinational repair pathway; a double mutant S 2057NL-24 rad2-20 -rad9-4 clone B was obtained by tetrad analysis of a heterozygote [formula]
The media and culture conditions used were as described in D. Averbeck, E. Moustacchi, (1975) Biochim. Biophys. Acta, 395, 393-404.
10^6 cells/ml in saline (0.9% NaCl) were treated for 30 minutes with the drugs at a final concentration of 10 μg/ml and 1.2% ethanol present.
A Philips HPW 125 culot Edison high pressure mercury lamp was used with maximal output at the wavelength 365 nm. The irradiation dose measured by actinometry was 10 J/m^2 per sec., using the following set up: 10 ml of actinometer solution (or the cell suspension, usually 1×10^6 cells/ml), stirred continuously by a magnetic stirrer, were irradiated at room temperature in an open Petri dish of 10 cm diameter at a distance of 10 cm from the center of the light bulb which was mounted horizontally. A 2 mm thick pyrex glass sheet (20×25 cm) was placed in the center of the light beam to cut out UV light of wavelength below 340 nm. […]

Saccharomyces cerevisiae [2] = assay: Repair of photoinduced lesions in yeast (repair mutants, agar holding); assay type: cell-based
Excerpt: Biophys. Acta, 395, 393-404.
Consequently, it appears that the excision repair pathway in wild type and rad9-4 cells is essential in AHR for both compounds.

yeast DNA = assay: Melting and reassociation (cross-link formation) of yeast DNA treated in vitro plus 365 nm light; assay type: biochemical
Protocol: Measurement of the melting and reassociation characteristics of yeast DNA:
Biophys. […] The fractions containing the nuclear DNA were pooled and dialysed against a 0.1 M, pH 7 phosphate buffer. […] Unirradiated samples of DNA with or without the drugs were taken as references.
The cross-links formation of the two furocoumarins with native yeast DNA was tested by measuring the denaturation and renaturation pattern.

yeast RNA = assay: Photobinding to yeast RNA in vivo (radiolabelled drug plus 365 nm light); assay type: binding, Saccharomyces cerevisiae; details: for cpm for 10^8 cells: RNA; for Molecules 3-CPs/μg DNA / μg 3-CPs/μg DNA: binding to RNA
Protocol: The radioactivity of an aliquot (0.1 ml) of this solution was measured in 5 ml of scintillation mixture (Nuclear Entreprise, Ltd., Edinburgh, Scotland, NE 250).
For the in vivo determinations stationary phase cells of the haploid wild type strain N 123 were prepared as previously described.
2 ml cell suspensions were exposed to several doses of 365 nm light. In parallel, non irradiated samples were incubated for the same periods. Immediately after incubation and/or irradiation, the samples were centrifuged and the pellet was washed 3 times with 5 ml of saline (0.9% NaCl). The washed cell pellet was resuspended in 1 ml of saline and 1 ml of 2 N NaOH was added in order to hydrolyze the RNA. The suspension was incubated overnight in the dark at room temperature, then cooled down on ice, and 2 ml of 50% TCA were added slowly. The samples were left 20 minutes on ice and the precipitated DNA was filtered on a glass fiber filter disc (Whatman GF/A, 2.1 cm diameter). In some cases the filtrate containing the acid-soluble material was kept aside, and the radioactivity of an aliquot added to 5 ml of NE250 scintillation mixture measured. The precipitate was washed 3 times with 5 ml of 5% cold TCA and 5 ml of 70% ethanol. The filters were then dried and the radioactivity measured in plastic counting vials containing 5 ml of scintillation mixture (NE 250) in a Tricarb Packard scintillation spectrophotometer.

calf thymus DNA = assay: Photobinding to native calf thymus DNA in vitro; assay type: binding; details: for cpm/μg DNA / μg 3-CPs/μg DNA: 6 × 10^-5 M
Protocol: These determinations were done in vitro and in vivo. […] The thickness of the irradiated sample was 1 mm. After irradiation, the solution was diluted by a factor of 2, and NaCl was added to a final concentration of 1 M. The DNA was precipitated with 2 volumes of cold pure ethanol. The samples were left overnight in the cold at -20° C. The precipitate was then washed by centrifugation three times with 3 ml of 70% ethanol and redissolved in 3 ml of water. The DNA recovery was checked by determination of the optical density of the solution at 260 nm.

[3] = 5 min, 6.3 × 10^4 ergs.mm^-2 365 nm
[4] = 10 min, 12.6 × 10^4 ergs.mm^-2 365 nm
[5] = 15 min, 18.9 × 10^4 ergs.mm^-2 365 nm
[6] = 20 min, 25.2 × 10^4 ergs.mm^-2 365 nm
[7] = 30 min, 37.8 × 10^4 ergs.mm^-2 365 nm
[8] = 40 min, 50.4 × 10^4 ergs.mm^-2 365 nm
[9] = 60 min, 75.6 × 10^4 ergs.mm^-2 365 nm
[10] = 15 min, 18.9 × 10^4 ergs. mm^-2 365 nm
[11] = 30 min, 37.8 × 10^4 ergs. mm^-2 365 nm
[12] = 45 min, 56.7 × 10^4 ergs. mm^-2 365 nm
[13] = 60 min, 75.6 × 10^4 ergs. mm^-2 365 nm

SMILES: CCOC(=O)c1cc2cc3ccoc3cc2oc1=O [Example 3-CPs, 3-carboethoxypsoralen]
- induction of cytoplasmic "petite" mutations (Saccharomyces cerevisiae [1]): the most reactive compound
- dark repair by strain defective in excision (Saccharomyces cerevisiae [2]; agar holding): unable to perform a dark repair
- repair by strain defective in recombination (Saccharomyces cerevisiae [2]; agar holding): reduced capacity to repair
- interaction between rad2 and rad9 repair pathways (Saccharomyces cerevisiae [2]; plus 365 nm light): synergistic interaction
- kinetics of agar holding recovery (AHR) (Saccharomyces cerevisiae [2]; wild-type cells): same kinetics of AHR
- reassociation of DNA after heat denaturation (yeast DNA): such a reassociation was not found
- cross-links in DNA (yeast DNA; dose range used): does not induce cross-links in DNA; also recorded: absence of cross-link formation
- photoaffinity for RNA (yeast RNA): relatively low photoaffinity for RNA
- cpm for 10^8 cells (yeast RNA; 5-60 min, no 365 nm light): 1285 cpm for 10^8 cells
- cpm for 10^8 cells (yeast RNA; [3]): 7130 cpm for 10^8 cells
- cpm for 10^8 cells (yeast RNA; [4]): 11040 cpm for 10^8 cells
- cpm for 10^8 cells (yeast RNA; [5]): 14170 cpm for 10^8 cells
- cpm for 10^8 cells (yeast RNA; [6]): 18780 cpm for 10^8 cells
- cpm for 10^8 cells (yeast RNA; [7]): 25380 cpm for 10^8 cells
- cpm for 10^8 cells (yeast RNA; [8]): 29240 cpm for 10^8 cells
- cpm for 10^8 cells (yeast RNA; [9]): 31730 cpm for 10^8 cells
- Molecules 3-CPs/μg DNA (yeast RNA; 5-60 min, no 365 nm light): 0.0023 Molecules 3-CPs/μg DNA × 10^14
- μg 3-CPs/μg DNA (yeast RNA; 5-60 min, no 365 nm light): 0.01 μg 3-CPs/μg DNA × 10^-2
- Molecules 3-CPs/μg DNA (yeast RNA; [3]): 0.0130 Molecules 3-CPs/μg DNA × 10^14
- μg 3-CPs/μg DNA (yeast RNA; [3]): 0.056 μg 3-CPs/μg DNA × 10^-2
- Molecules 3-CPs/μg DNA (yeast RNA; [4]): 0.020 Molecules 3-CPs/μg DNA × 10^14
- μg 3-CPs/μg DNA (yeast RNA; [4]): 0.086 μg 3-CPs/μg DNA × 10^-2
- Molecules 3-CPs/μg DNA (yeast RNA; [5]): 0.026 Molecules 3-CPs/μg DNA × 10^14
- μg 3-CPs/μg DNA (yeast RNA; [5]): 0.11 μg 3-CPs/μg DNA × 10^-2
- Molecules 3-CPs/μg DNA (yeast RNA; [6]): 0.034 Molecules 3-CPs/μg DNA × 10^14
- μg 3-CPs/μg DNA (yeast RNA; [6]): 0.15 μg 3-CPs/μg DNA × 10^-2
- Molecules 3-CPs/μg DNA (yeast RNA; [7]): 0.046 Molecules 3-CPs/μg DNA × 10^14
- μg 3-CPs/μg DNA (yeast RNA; [7]): 0.20 μg 3-CPs/μg DNA × 10^-2
- Molecules 3-CPs/μg DNA (yeast RNA; [8]): 0.053 Molecules 3-CPs/μg DNA × 10^14
- μg 3-CPs/μg DNA (yeast RNA; [8]): 0.23 μg 3-CPs/μg DNA × 10^-2
- Molecules 3-CPs/μg DNA (yeast RNA; [9]): 0.058 Molecules 3-CPs/μg DNA × 10^14
- μg 3-CPs/μg DNA (yeast RNA; [9]): 0.25 μg 3-CPs/μg DNA × 10^-2
- dark binding with RNA relative to that at lowest dose of irradiation (yeast RNA; dark, 50 minutes): 20%
- 365 nm light dose up to which binding with RNA increases linearly, then levels off (yeast RNA; in vivo): up to 25.2×10^3 J/m^2
- difference in photoreactivity with RNA, 3-CPs vs 8-MOP (yeast RNA; in vivo): 3.4 factor
- cpm/μg DNA (calf thymus DNA; 0-60 min incubation (dark)): 0.21 cpm/μg DNA
- μg 3-CPs/μg DNA (calf thymus DNA; 0-60 min incubation (dark)): 0.009×10^-3 μg 3-CPs/μg DNA
- cpm/μg DNA (calf thymus DNA; [10]): 3.29 cpm/μg DNA
- μg 3-CPs/μg DNA (calf thymus DNA; [10]): 0.14×10^-3 μg 3-CPs/μg DNA
- cpm/μg DNA (calf thymus DNA; [11]): 4.25 cpm/μg DNA
- μg 3-CPs/μg DNA (calf thymus DNA; [11]): 0.18×10^-3 μg 3-CPs/μg DNA
- cpm/μg DNA (calf thymus DNA; [12]): 4.30 cpm/μg DNA
- μg 3-CPs/μg DNA (calf thymus DNA; [12]): 0.18×10^-3 μg 3-CPs/μg DNA
- cpm/μg DNA (calf thymus DNA; [13]): 3.10 cpm/μg DNA
- μg 3-CPs/μg DNA (calf thymus DNA; [13]): 0.13×10^-3 μg 3-CPs/μg DNA
- dose of 365 nm light up to which binding increases rapidly (calf thymus DNA; in vitro): up to 3780 J/m^2
